ChEMBL document CHEMBL1151337, “New tertiary alkaloids of Strychnos decussata” (J Nat Prod, 1980)

Experiments:
[1] = Toxicity in ip dosed NMRI mouse assessed as clonic and tonic convulsions; type: organism-based; details: in vivo
[2] = system: Mus musculus; assay: Toxicity in ip dosed NMRI mouse assessed as clonic and tonic convulsions assessed as cunvulsive dose; type: organism-based; details: in vivo

Row | SMILES | LD50 [1] [mg/kg] | Activity [2] [mg/kg]
1 | C/C=C(/C=O)[C@H]1C[C@H](OC)n2c3c(c4cc(O)ccc42)CCN(C)[C@H]3C1 | 75 | 75
2 | C/C=C(/C=O)[C@H]1C[C@H](OC)n2c3c(c4ccccc42)CCN(C)[C@H]3C1 |  | 45.3
3 | C/C=C1\[C@@H]2C[C@H]3c4c(c5cc(O)ccc5n4[C@@H](C2)O[C@H]1OC)CCN3C | 84 | 84
4 | C/C=C1\[C@@H]2C[C@H]3c4c(c5cc(O)ccc5n4[C@@H](C2)O[C@@H]1OC)CCN3C | 90 | 80
5 | C/C=C(/C=O)[C@@H]1C[C@H]2c3c(c4ccccc4n3[C@@H](O)C1)CCN2C [AKAGERINE] |  | 50
